Measured values reported in patent US9427415B2, “Methods and compositions for modifying sensorial perception” (The Procter & Gamble Company, priority 2014, dated 2016).
Read-outs that look alike come from different tables or passages of the source.

Experiments:
human TRPV1 = target: T1, human TRPV1 (Homo sapiens, UniProt Q8NER1, M315I/T336M); experiment: Intracellular calcium (Fluo-4, FLIPR) activation of TRPV1 cells by GRAS compounds; assay type: cell-based;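 note: TRPV1-expressing cells, FLIPR fluorescence at 488/514 nm with baseline subtracted, sampled every 2 s for 10 min after adding compound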
T1 construct: expressed in transfected cells; pcDNA3 control cells

human TRPA1 = target: T2, human TRPA1 (Homo sapiens, UniProt O75762, K186N/R3C/R58T); experiment: Intracellular calcium (Fluo-4, FLIPR) activation of TRPA1 cells by GRAS compounds; assay type: cell-based;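 note: TRPA1-expressing cells, fluorescence read on a FLIPR Tetra (ex 488 nm, em 514 nm) every 2 s for 10 min after compound addition, baseline subtracted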
T2 construct: expressed in transfected cells; pcDNA3 control cells

TRPA1V1 = experiment: Intracellular calcium (Fluo-4, FLIPR) activation of TRPA1V1 cells (co-expressing TRPA1 and TRPV1) by GRAS compounds; assay type: cell-based, human;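 note: HEK293 cells co-expressing TRPA1 and TRPV1, fluorescence read at 488/514 nm after baseline subtraction, recorded every 2 s over 10 min, ionomycin 10 µM and buffer as controls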
Experimental: TRPV1, TRPA1, TRPA1V1 and pcDNA3 cells were grown in 15 mL growth medium [high glucose DMEM (Dulbecco's modification of Eagle's medium) supplemented with 10% FBS (fetal bovine serum), 100 μg/mL penicillin/streptomycin, 100 μg/mL G418] in a 75 cm^2 flask for 3 days in a mammalian cell culture incubator at 33° C. and 5% CO2. TRP Cells were detached with 8 mL of PBS (without calcium or magnesium); for pcDNA3 cells, trypsin was used for releasing the cells. The detached cells were spun at low speed (800-900 rpm for 3 min) to pellet the cells. […] The cells were washed once with 45 mL assay buffer (1×HBSS, 20 mM HEPES) by low speed centrifugation (800-900 rpm for 3 min) and resuspended in 11 mL of the assay buffer in a reagent reservoir. […] The plates were set at room temperature for 30 min. The plates were read in a FLIPR^TETRA instrument (Molecular Devices, Sunnyvale, Calif.) at λex 488 nm and λem 514 nm to record baseline fluorescence following which 20 μL of test material at 1 mM or 100 μM final concentration for pure compounds in a GRAS library or 0.004% for extracts. For agonists, capsaicin 350 nM and AITC at 30 μM; and for controls, ionomycin 10 μM and buffer alone) was added to each well using the dispenser provided in the FLIPR. The data point was recorded every 2 seconds for a total of 10 min.
Average value for activation from three independent assay plates are presented as % of agonist value (AITC, 30 μM for TRPA1 and capsaicin, 350 nM for TRPV1. For TRPA1V1, we used AITC, 30 μM or capsaicin, 350 nM depending on if the compound is an A1 agonist or a V1 agonist. For compounds that activated both A1 and V1, we used AITC for normalization). Variation among triplicates was within 10% of each other. Assayed at 1 mM for pure compounds and 0.004% for extracts.

[1] = Table 1(b), 1 mM, relative to capsaicin 350 nM, read-out: V1 activation, % of agonist value
[2] = Table 1(b), 1 mM, relative to AITC 30 μM, read-out: A1 activation, % of agonist value
[3] = Table 1(b), 1 mM, relative to AITC 30 μM
[4] = Table 1(a), 1 mM, relative to capsaicin 350 nM, average of three plates, read-out: V1 activation, % of agonist value
[5] = Table 1(a), 1 mM, relative to AITC 30 μM, average of three plates, read-out: A1 activation, % of agonist value
[6] = Table 1(a), 1 mM, relative to AITC 30 μM, average of three plates

T2 sequence (O75762 whole entry R3C/R58T/K186N): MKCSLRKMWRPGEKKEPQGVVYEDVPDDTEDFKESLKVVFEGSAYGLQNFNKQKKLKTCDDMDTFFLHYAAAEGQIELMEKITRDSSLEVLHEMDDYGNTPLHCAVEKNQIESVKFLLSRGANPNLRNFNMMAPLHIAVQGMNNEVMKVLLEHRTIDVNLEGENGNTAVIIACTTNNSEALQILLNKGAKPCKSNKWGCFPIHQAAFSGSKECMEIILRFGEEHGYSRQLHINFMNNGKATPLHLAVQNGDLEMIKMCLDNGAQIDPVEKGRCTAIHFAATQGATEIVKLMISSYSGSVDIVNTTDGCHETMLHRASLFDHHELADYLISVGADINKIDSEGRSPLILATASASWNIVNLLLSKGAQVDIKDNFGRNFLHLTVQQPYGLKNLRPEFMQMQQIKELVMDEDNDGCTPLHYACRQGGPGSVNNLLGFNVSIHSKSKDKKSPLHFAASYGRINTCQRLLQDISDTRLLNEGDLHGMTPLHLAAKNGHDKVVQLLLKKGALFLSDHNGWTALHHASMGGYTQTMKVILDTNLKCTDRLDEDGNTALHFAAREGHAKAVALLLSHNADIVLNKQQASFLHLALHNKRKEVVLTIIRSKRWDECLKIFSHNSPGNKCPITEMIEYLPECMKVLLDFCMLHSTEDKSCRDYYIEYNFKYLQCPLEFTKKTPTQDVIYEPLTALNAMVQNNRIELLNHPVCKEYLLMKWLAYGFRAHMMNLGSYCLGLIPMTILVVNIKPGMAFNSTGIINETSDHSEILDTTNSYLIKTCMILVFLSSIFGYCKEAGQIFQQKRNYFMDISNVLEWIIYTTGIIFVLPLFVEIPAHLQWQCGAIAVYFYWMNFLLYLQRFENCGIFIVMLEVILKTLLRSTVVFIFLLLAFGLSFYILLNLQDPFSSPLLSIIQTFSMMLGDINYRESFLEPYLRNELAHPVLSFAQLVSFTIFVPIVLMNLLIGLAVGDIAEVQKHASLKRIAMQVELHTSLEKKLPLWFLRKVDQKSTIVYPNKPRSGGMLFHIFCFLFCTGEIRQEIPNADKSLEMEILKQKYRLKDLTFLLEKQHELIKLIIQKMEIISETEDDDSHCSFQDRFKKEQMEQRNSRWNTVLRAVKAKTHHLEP
T1 sequence (Q8NER1 whole entry M315I/T336M): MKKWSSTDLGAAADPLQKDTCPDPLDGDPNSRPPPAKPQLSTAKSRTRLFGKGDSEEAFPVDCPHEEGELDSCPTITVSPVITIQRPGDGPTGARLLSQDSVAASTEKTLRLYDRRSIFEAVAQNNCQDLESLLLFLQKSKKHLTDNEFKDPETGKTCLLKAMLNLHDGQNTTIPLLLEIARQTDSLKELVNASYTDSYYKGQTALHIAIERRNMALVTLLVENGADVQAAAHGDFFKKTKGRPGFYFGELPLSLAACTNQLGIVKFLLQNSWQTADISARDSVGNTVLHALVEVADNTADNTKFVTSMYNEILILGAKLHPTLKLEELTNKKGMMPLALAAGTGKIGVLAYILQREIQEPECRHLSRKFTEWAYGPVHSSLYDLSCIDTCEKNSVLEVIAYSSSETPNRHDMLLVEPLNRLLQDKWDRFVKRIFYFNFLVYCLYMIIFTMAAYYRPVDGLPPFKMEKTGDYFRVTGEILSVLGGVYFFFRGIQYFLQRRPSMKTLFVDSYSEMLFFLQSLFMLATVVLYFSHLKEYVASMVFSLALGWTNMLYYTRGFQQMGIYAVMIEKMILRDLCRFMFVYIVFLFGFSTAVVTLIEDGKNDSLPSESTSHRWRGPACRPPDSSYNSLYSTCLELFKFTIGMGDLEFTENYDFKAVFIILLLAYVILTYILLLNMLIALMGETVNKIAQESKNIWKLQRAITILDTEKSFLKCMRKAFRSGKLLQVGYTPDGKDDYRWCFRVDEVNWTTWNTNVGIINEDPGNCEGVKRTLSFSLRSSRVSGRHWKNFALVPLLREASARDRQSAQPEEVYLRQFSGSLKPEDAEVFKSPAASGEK

For `O=C1NS(=O)(=O)c2ccccc21` [Saccharin], the activation at 1000 µM (human TRPV1; read-out: V1 activation, % of agonist value) was 80.8%, the activation at 1000 µM (human TRPA1; read-out: A1 activation, % of agonist value) was 92.6% and the “A1V1 activation, % of agonist value” (TRPA1V1) was 93.25%.

In the case of `Cc1ccc(C(C)C)c(O)c1` [Thymol], the activation at 1000 µM (human TRPV1; [1]) is reported as 106%, the activation at 1000 µM (human TRPA1; [2]) is reported as 159% and the “A1V1 activation, % of agonist value” (TRPA1V1; [3]) is reported as 105.7%.

With `CCCCCC/C=C/C=C/C=O` [Trans,trans-2,4-undecadien-1-al] the activation at 100 µM (human TRPV1; Table 1(b), 100 μM (*), relative to capsaicin 350 nM, read-out: V1 activation, % of agonist value) was 87.5%, the activation at 100 µM (human TRPA1; Table 1(b), 100 μM (*), relative to AITC 30 μM, read-out: A1 activation, % of agonist value) was 74% and the activation at 1000 µM (human TRPA1; Table 1(c), 1 mM, relative to AITC 30 μM, read-out: A1 activation, % of agonist value) was 86.4%. For the same compound, the “A1V1 activation, % of agonist value” (TRPA1V1; Table 1(b), 100 μM (*), relative to AITC 30 μM) was 38.4% and the “A1V1 activation, % of agonist value” (TRPA1V1; Table 1(c), 1 mM, relative to AITC 30 μM) was 85.4%.

`CCCCC/C=C/CO` [Trans-2-Octen-1-ol] was tested, and the activation at 1000 µM (human TRPV1; [4]) was 26%, the activation at 1000 µM (human TRPA1; [5]) was 118% and the “A1V1 activation, % of agonist value” (TRPA1V1; [6]) was 103.2%.

For `COc1cc(C2OCC(C)O2)ccc1O` (stereo not drawn) [Vanillin propylene glycol acetal], the “V1 activation, % of agonist value” (human TRPV1; Table 1(b), 1 mM, relative to capsaicin 350 nM) was 57.97%, the “A1 activation, % of agonist value” (human TRPA1; [3]) was 76.21% and the “A1V1 activation, % of agonist value” (TRPA1V1; [3]) was 94.49%.

With `CCOCc1ccc(O)c(OC)c1` [Vanillyl ethyl ether] the activation at 1000 µM (human TRPV1; [4]) was 67.6%, the activation at 1000 µM (human TRPA1; [5]) was 38% and the “A1V1 activation, % of agonist value” (TRPA1V1; [6]) was 59.64%.

`COc1cc(CCC(C)=O)ccc1O` [Vanillylacetone] was tested, and the activation at 1000 µM (human TRPV1; [1]) was 60%, the activation at 1000 µM (human TRPA1; [2]) was 22.3% and the “A1V1 activation, % of agonist value” (TRPA1V1; [3]) was 37.75%.

In the case of `C=CCc1cccc(OC)c1O` [o-Eugenol], the “V1 activation, % of agonist value” (human TRPV1; Table 1(a), 1 mM, relative to capsaicin 350 nM, average of three plates) is reported as 64.5%, the “A1 activation, % of agonist value” (human TRPA1; [6]) is reported as 128.4% and the “A1V1 activation, % of agonist value” (TRPA1V1; [6]) is reported as 158.3%.

Desoxycholic acid was tested, and the “V1 activation, % of agonist value” (human TRPV1; Table 1(i), 100 μM (*), relative to capsaicin 350 nM, […]) was 84.4%, the “TRPV1 activation selectivity, in words” value (human TRPV1; statement in description, see Table 1(i)) was “TRPV1 activators which do not modulate TRPA1 or TRPA1V1” and the “A1 activation, % of agonist value” (human TRPA1; Table 1(i), 100 μM (*), relative to AITC 30 μM, […]) was 3.2%. The “A1V1 activation, % of agonist value” (TRPA1V1; Table 1(i), 100 μM (*), relative to AITC 30 μM or capsaicin 350 nM depending on compound, […]) was 2.9%.
